Measurements reported in PMC12735945, “Synthetic Linear Lipopeptides and Lipopeptoids Induce Apoptosis and Oxidative Stress: In Vitro Cytotoxicity and SAR Evaluation Against Cancer Cell Lines” (Pharmaceuticals, 2025).
Read-outs that look alike come from different tables or passages of the source. Starred links: 1 amine or outer side, 2 acyl side, 3 side chain; linkers in the order of their positions; H or OH if unused. Positions of bridges follow the written chain, without caps; N, C: chain ends. Non-standard residues stand in square brackets, D forms with d. Residues, ends and D or L forms follow the SMILES beside them. *: point of attachment. X1 = CC(C)CCCCCCCCC[C@H](CC(=O)[*:1])O[*:2]; Heptadecanoyl = CCCCCCCCCCCCCCCCC(=O)*; Stearoyl = CCCCCCCCCCCCCCCCCC(=O)*; Myristoyl = CCCCCCCCCCCCCC(=O)*; Boc = CC(C)(C)OC(=O)*; Nlys = NCCCCNCC(=O)O

Columns and labels:
[1] = tested on: HT-29 (human colon adenocarcinoma) cells; format: cell-based; conditions: 72 h
Method: (§1) The MTT and CV assays were employed for initial cytotoxicity screening and determination of half-maximal inhibitory concentrations (IC50), as described previously. Cells were seeded in 96-well plates and incubated for 24 h prior to treatment. B16F10, HT-29, HeLa, and NIH3T3 cells were seeded at a density of 2000 cells per well, while PC3 cells were seeded at 6000 cells per well due to their slower proliferation rate. For fast screening, cancer cells were treated with two concentrations of each LLP (0.1 µM and 10 µM) for 72 h in triplicate, with four replicates in each experiment. […] Digitonin was used as a positive control in all assays. Following treatment, absorbance was measured using a microplate reader (SpectraMax, Molecular Devices, San Jose, CA, USA) at 540 nm, with a reference wavelength of 670 nm. Cell viability was calculated as a percentage of untreated control wells.

[2] = tested on: PC3 (human prostate cancer) cells; format: cell-based; conditions: 72 h
Method: as §1

[3] = tested on: HeLa (human cervical adenocarcinoma) cells; format: cell-based; conditions: 72 h
Method: as §1

[4] = tested on: HT-29 (human colon adenocarcinoma) cells; format: cell-based; conditions: 72 h; remark: listed apart in the source
Method: as §1

[5] = tested on: B16F10 (mouse skin melanoma) cells; format: cell-based; conditions: 72 h
Method: as §1

[6] = tested on: PC3 (human prostate cancer) cells; format: cell-based; conditions: 72 h; remark: listed apart in the source
Method: as §1

[7] = tested on: HeLa (human cervical adenocarcinoma) cells; format: cell-based; conditions: 72 h; remark: listed apart in the source
Method: as §1

B16F10 cells [8] = test: Apoptosis by Annexin V-FITC/PI staining; format: cell-based, mouse; conditions: B16F10, IC50 concentration, 72 h
Method: B16F10 melanoma cells were seeded in 6-well plates at a density of 1 × 10^5 cells/well and incubated overnight to allow for cell adherence. […] Following treatment, both floating and adherent cells were harvested and washed with PBS. The cells were then resuspended in 100 μL of Annexin V binding buffer containing 5 μL of Annexin V-FITC and 2 μL of PI per sample. Staining was performed for 15 min at 37 °C in the dark. After staining, cells were washed with PBS and analyzed using a BD FACSAria III flow cytometer (BD Biosciences) to quantify the percentages of apoptotic cells.

B16F10 cells [9] = test: Cell cycle analysis (DAPI staining, flow cytometry); format: cell-based, mouse; conditions: 72 h
Method: B16F10 cells were seeded overnight in 6-well plates at a density of 1 × 10^5 cells per well and treated for 72 h with selected active LLPs either at the IC50 or 2 × IC50 concentration. Following treatment, both floating and adherent cells were collected, washed with PBS, and fixed in 70% ethanol at 4 °C overnight. Fixed cells were stained with DAPI staining solution (1 µg/mL) for 30 min at 37 °C in the dark, followed by PBS washing to remove excess dye. Flow cytometric analysis was performed using a FACSAria III instrument (BD Biosciences, Eysins, Switzerland). Histograms of cell counts versus fluorescence intensity were generated and cell cycle distribution was determined based on mean fluorescence intensity values.

B16F10 cells [10] = test: NO production (DAF-FM staining, flow cytometry); format: cell-based, mouse; conditions: B16F10, IC50 concentration, 72 h
Method: (§2) To assess intracellular ROS/RNS levels, B16F10 cells were first stained with 1 µM DHR for 10 min at 37 °C. Following staining, cells were treated with LLPs 17, 53 or 58 at their IC50 concentrations for 72 h. After treatment, cells were trypsinized, washed with PBS, and analyzed by flow cytometry to quantify DHR fluorescence, indicative of ROS/RNS production. For NO detection, B16F10 cells were treated under identical conditions using the same LLP concentrations. After 72 h, cells were incubated with 5 µM DAF-FM diacetate in RPMI 1640 supplemented with 10% FCS for 1 h at 37 °C. The stain was then deactivated by incubation for 15 min with a serum-free medium. Finally, cells were detached, washed with PBS, and subjected to flow cytometric analysis to assess intracellular NO levels.

[11] = tested on: B16F10 (mouse skin melanoma) cells; format: cell-based; conditions: 72 h; remark: listed apart in the source
Method: as §1

caspases in B16F10 cells = test: ApoStat caspase detection assay; format: cell-based, mouse; conditions: B16F10, IC50 concentration, 72 h
Method: B16F10 cells were seeded in 6-well plates at a density of 1 × 10^5 cells per well and treated for 72 h with IC50 concentrations of selected active LLPs. Post-treatment, cells were harvested and washed with PBS. Cells were then stained with 100 μL of working ApoStat solution, prepared by diluting ApoStat reagent (FITC-VAD-FMK) in PBS containing 5% FCS (99 μL of PBS 5% FCS + 1 μL ApoStat per sample). The staining was performed for 30 min at 37 °C in the dark. Following incubation, cells were washed to remove unbound reagents and analyzed by flow cytometry using a FACSAria III system (BD Biosciences). The fluorescence intensity of FITC was measured to assess caspase production, with increased fluorescence indicating elevated caspase activity.

B16F10 cells [12] = test: ROS/RNS production (DHR staining, flow cytometry); format: cell-based, mouse; conditions: B16F10, IC50 concentration, 72 h, versus untreated control
Method: as §2

B16F10 cells [13] = test: CFSE-based cell proliferation assay; set-up: species or system mouse; conditions: B16F10, IC50 concentration, 72 h
Method: B16F10 cells were stained with 1 µM carboxyfluorescein succinimidyl ester (CFSE) for 10 min at 37 °C, followed by treatment with compounds 17, 53, or 57 at IC50 concentrations for 72 h. After incubation, cells were washed, trypsinized, and analyzed by flow cytometry to assess cell division based on CFSE fluorescence intensity.

[14] = tested on: B16F10 (mouse skin melanoma) cells; conditions: CV assay, 72 h; mean ± SD; cited from earlier work
Method: Table 1 IC50 value (µM) for cytotoxic LLPs (72 h, CV assay). Data represent mean ± SD from three independent biological experiments, each performed with eight technical replicates per concentration. | column: B16F10

[15] = tested on: HeLa (human cervical adenocarcinoma) cells; conditions: CV assay, 72 h; mean ± SD; cited from earlier work
Method: Table 1 IC50 value (µM) for cytotoxic LLPs (72 h, CV assay). Data represent mean ± SD from three independent biological experiments, each performed with eight technical replicates per concentration. | column: HeLa

[16] = tested on: NIH3T3 mouse embryonic fibroblasts; format: cell-based; conditions: 72 h
Method: as §1

[17] = MTT assay, mean ± SD of three independent biological experiments, read-out: IC50 B16F10
[18] = MTT assay, mean ± SD of three independent biological experiments, read-out: IC50 HeLa
[19] = B16F10, double IC50 concentration

Row | SMILES | IC50 [1] [µM] | IC50 [3] [µM] | IC50 [4] [µM] | IC50 [7] [µM] | IC50 [3, 18] [µM] | IC50 [5] [µM] | IC50 [11] [µM] | proportion of apoptotic cells (B16F10 cells [8]) | cells in the sub-G1 phase (B16F10 cells [9]; B16F10, IC50 concentration) | cells in the sub-G1 phase (B16F10 cells [9]; [19]) | NO production (B16F10 cells [10]) | caspase activation (ApoStat fluorescence) (caspases in B16F10 cells) | ROS/RNS production (B16F10 cells [12]) | cell division profile (CFSE) (B16F10 cells [13]) | further results
1 | CCCCCCCCCCCCCCCC(=O)N(CCCCCCNC(=O)OC(C)(C)C)CC(=O)NCC(=O)N(CCCCCCNC(=O)OC(C)(C)C)CC(=O)NCC(=O)OC [Compound 3] | 6.2 ± 0.2 | 6.4 ± 0.9 | 6.5 ± 0.6 | 6.6 ± 0.3 | – | – | – | – | – | – | – | – | – | – | IC50 [2]: 5.9 ± 0.1 µM; IC50 [5, 17]: 6.1 ± 0.1 µM; IC50 [6]: 6.1 ± 0.2 µM
2 | CCCCCCCCCCCCCC(=O)N(CCNC(=O)OC(C)(C)C)CC(=O)NCC(=O)N(CCNC(=O)OC(C)(C)C)CC(=O)NCC(=O)OC [Compound 17] | 4.1 ± 0.8 | – | 4 ± 0.6 | – | 5.6 ± 0.3 | 5.7 ± 0.3 | 5.6 ± 0.4 | approximately 15% | approximately 20% | 50–60% | increased NO production | gradual enhancement in the fluorescence signal | moderate ROS/RNS generation | notably reduced the proportion of cells undergoing successive divisions | IC50 [2]: 4 ± 0.3 µM; IC50 [6]: 4.1 ± 0.6 µM
3 | CCCCCCCCCCCCCCCCC(=O)N(CCCCNC(=O)OC(C)(C)C)CC(=O)NCC(=O)N(CCCCNC(=O)OC(C)(C)C)CC(=O)NCC(=O)OC [Compound 45] (Heptadecanoyl-[Nlys](Boc)G[Nlys](Boc)G-OMe) | 7.8 ± 0.9 | 8 ± 0.5 | 7.5 ± 0.1 | 7.9 ± 0.6 | – | – | – | – | – | – | – | – | – | – | IC50 [5, 17]: 8 ± 0.2 µM
4 | CCCCCCCCCCCCCCCCCC(=O)N(CCCCNC(=O)OC(C)(C)C)CC(=O)NCC(=O)N(CCCCNC(=O)OC(C)(C)C)CC(=O)NCC(=O)OC [Compound 46] (Stearoyl-[Nlys](Boc)G[Nlys](Boc)G-OMe) | – | 8.2 ± 0.3 | – | 8 ± 0.4 | – | 8.1 ± 0.1 | 8 ± 0.9 | – | – | – | – | – | – | – | –
5 | CCCCCCCCCCCCCC(=O)N(CCCCNC(=O)OC(C)(C)C)CC(=O)NCC(=O)N(CCCCNC(=O)OC(C)(C)C)CC(=O)NCC(=O)OC [Compound 47] (Myristoyl-[Nlys](Boc)G[Nlys](Boc)G-OMe) | – | – | – | – | 12.3 ± 0.8 | – | – | – | – | – | – | – | – | – | –

Second part, led by results:

Row | IC50 [1] [µM] | IC50 [3] [µM] | IC50 [4] [µM] | IC50 [7] [µM] | IC50 [3, 18] [µM] | IC50 [5] [µM] | IC50 [11] [µM] | SMILES | proportion of apoptotic cells (B16F10 cells [8]) | cells in the sub-G1 phase (B16F10 cells [9]; B16F10, IC50 concentration) | cells in the sub-G1 phase (B16F10 cells [9]; [19]) | NO production (B16F10 cells [10]) | caspase activation (ApoStat fluorescence) (caspases in B16F10 cells) | ROS/RNS production (B16F10 cells [12]) | cell division profile (CFSE) (B16F10 cells [13]) | further results
6 | – | – | – | – | – | 8 ± 0.2 | 7.7 ± 0.3 | CCCCCCCCCCCCCCCC(=O)N(CCc1ccc(O)cc1)CC(=O)NCC(=O)OC [Compound 53] | approximately 15% | approximately 20% | 50–60% | only a slight increase | gradual enhancement in the fluorescence signal | only slightly enhanced | notably reduced the proportion of cells undergoing successive divisions | –
7 | – | – | – | – | 15.4 ± 0.4 | – | – | CCCCCCCCCCCCCCCC(=O)N(CCCCN=[N+]=[N-])CC(=O)NCC(=O)N(CCCCN=[N+]=[N-])CC(=O)NCC(=O)OC [Compound 55] | – | – | – | – | – | – | – | –
8 | 9.1 ± 0.2 | 7.8 ± 0.3 | 8.7 ± 0.3 | 7.7 ± 0.2 | – | 7.5 ± 0.2 | 7.4 ± 0.1 | CCCCCCCCCCCCCCCCCCC(=O)N(CCCCN=[N+]=[N-])CC(=O)NCC(=O)N(CCCCN=[N+]=[N-])CC(=O)NCC(=O)OC [Compound 58] | approximately 15% | approximately 20% | 50–60% | increased NO production | clearer caspase activation was detected | marked increase | notably reduced the proportion of cells undergoing successive divisions | –
9 | – | – | – | – | – | 11.5 ± 1.3 | 11.1 ± 1.2 | CCCCCCCCCCCCCCCCCCCC(=O)N(CCCCN=[N+]=[N-])CC(=O)NCC(=O)N(CCCCN=[N+]=[N-])CC(=O)NCC(=O)OC [Compound 59] | – | – | – | – | – | – | – | –
10 | – | 64.9 ± 0.8 | – | – | – | 50.3 ± 0.6 | – | CC(C)CCCCCCCCC[C@@H]1CC(=O)N[C@@H](CCC(=O)O)C(=O)N[C@@H](CC(C)C)C(=O)N[C@H](CC(C)C)C(=O)N[C@@H](C(C)C)C(=O)N[C@@H](CC(=O)O)C(=O)N[C@H](CC(C)C)C(=O)N[C@@H](CC(C)C)C(=O)O1 [Surfactin, surfactin, reference compound] (EL[dL]VD[dL]L; linker N-C via X1 (inferred)) | – | – | – | – | – | – | – | IC50 [14]: 40.4 ± 0.3 µM; IC50 [15]: 76.2 ± 1.6 µM; NIH3T3 cell viability [16]: approximately 25%
